pIC50: −log10 of the molar value.
System: 857933-349-R-J2-PDC complex spheroid viability
Test: Anticancer human tumor 857933-349-R-J2-PDC patient-derived colon adenocarcinoma cell line growth inhibition [POLQ]
Settings: for pIC50: curve of first compound; for viability, T/C: stronger effect = lower value
How it was run: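 Three-cell-type spheroids modelling solid tumor plus stroma served as the readout system; POL inhibitors were tested individually and in combination, concentration ranges set by clinical Cmax where known.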
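Note: spheroids exposed to compounds for seven days before readout.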

CC1COCCN1c1cc(C2(O)CC3CCC(C2)O3)c2cnn(-c3ccn[nH]3)c2n1 (configuration not stated) + Nc1ccc(C#CCN(C(=O)Cc2ncc(C(F)(F)F)cc2C(F)(F)F)c2ccc(F)cc2)nn1
pIC50 (second compound 0.0316 µM): 6.06 | pIC50 (second compound 0.1 µM): < 5.00 | pIC50 (second compound 0.316 µM): 6.10 | pIC50 (second compound 1 µM): 6.18 | pIC50 (second compound 3.16 µM): < 5.00 | pIC50 (second compound 10 µM): < 5.00 | viability, T/C (second compound 0.0316 µM, first compound 0.0316 µM): 72.7% | viability, T/C (second compound 0.0316 µM, first compound 0.1 µM): 76.5% | viability, T/C (second compound 0.0316 µM, first compound 0.316 µM): 60.7% | viability, T/C (second compound 0.0316 µM, first compound 1 µM): 50.3% | viability, T/C (second compound 0.0316 µM, first compound 3.16 µM): 47.4% | viability, T/C (second compound 0.0316 µM, first compound 10 µM): 47.6% | viability, T/C (second compound 0.1 µM, first compound 0.0316 µM): 74.4% | viability, T/C (second compound 0.1 µM, first compound 0.1 µM): 74.7% | viability, T/C (second compound 0.1 µM, first compound 0.316 µM): 52.7% | viability, T/C (second compound 0.1 µM, first compound 1 µM): 53.1% | viability, T/C (second compound 0.1 µM, first compound 3.16 µM): 45.5% | viability, T/C (second compound 0.1 µM, first compound 10 µM): 59% | viability, T/C (second compound 0.316 µM, first compound 0.0316 µM): 77.9% | viability, T/C (second compound 0.316 µM, first compound 0.1 µM): 63.2% | viability, T/C (second compound 0.316 µM, first compound 0.316 µM): 58.2% | viability, T/C (second compound 0.316 µM, first compound 1 µM): 46.2% | viability, T/C (second compound 0.316 µM, first compound 3.16 µM): 44.7% | viability, T/C (second compound 0.316 µM, first compound 10 µM): 40.1% | viability, T/C (second compound 1 µM, first compound 0.0316 µM): 78% | viability, T/C (second compound 1 µM, first compound 0.1 µM): 70.4% | viability, T/C (second compound 1 µM, first compound 0.316 µM): 61.8% | viability, T/C (second compound 1 µM, first compound 1 µM): 40.9% | viability, T/C (second compound 1 µM, first compound 3.16 µM): 40% | viability, T/C (second compound 1 µM, first compound 10 µM): 49.2% | viability, T/C (second compound 3.16 µM, first compound 0.0316 µM): 79.2% | viability, T/C (second compound 3.16 µM, first compound 0.1 µM): 72.3% | viability, T/C (second compound 3.16 µM, first compound 0.316 µM): 61.4% | viability, T/C (second compound 3.16 µM, first compound 1 µM): 44.1% | viability, T/C (second compound 3.16 µM, first compound 3.16 µM): 49.9% | viability, T/C (second compound 3.16 µM, first compound 10 µM): 56.4% | viability, T/C (second compound 10 µM, first compound 0.0316 µM): 78.2% | viability, T/C (second compound 10 µM, first compound 0.1 µM): 58.9% | viability, T/C (second compound 10 µM, first compound 0.316 µM): 62.1% | viability, T/C (second compound 10 µM, first compound 1 µM): 54% | viability, T/C (second compound 10 µM, first compound 3.16 µM): 48.6% | viability, T/C (second compound 10 µM, first compound 10 µM): 56%

— PubChem BioAssay AID1963836 (Molecular Pharmacology Branch, DTP, NCI, 2024)
